Laboratory results reported in US10577610B2, “EpCAM aptamers and conjugates thereof” (Deakin University, priority 2015, dated 2020).
“And” between values parts separate entries of the source, which are not always exact repeats. Equal entries are not always repeated. [invdT] = inverted (3'-3') thymidine; {TYE665} = TYE665 fluorescent dye

Columns and labels:
mouse TfR = molecular target: T1, mouse TfR (Mus musculus, UniProt Q62351); test: Flow cytometry binding assay on bEnd.3 cells (TfR-positive); details: bEnd.3 (TfR-positive) cells, n=3
T1 construct: bEnd.3 cells, mouse cells positive for TfR; host or cells: bEnd.3 mouse cerebral endothelial cells
Protocol: In order to determine the binding affinity (equilibrium dissociation constant KD) of the aptamers. Binding assays were conducted to measure the binding to native EpCAM protein expressed on the cell surface. The aptamers were incubated with the cells at concentrations ranging from 0 nM to 400 nM. These were subsequently analysed by flow cytometry. Aptamers were thawed from storage (-20° C.) prior to use. These were then diluted via serial dilutions with phosphate buffered saline (PBS) in order to achieve the desired concentrations. PBS was supplemented with a MgCl2 concentration appropriate for the aptamer (1 mM for anti-TfR aptamers; 5 mM for conjugate aptamers). […] Concurrently, subcultured cells were incubated in blocking buffer (PBS with 10% FCS, 1 mg/mL BSA, 0.1 mg/mL tRNA) for 30 minutes. Following centrifugation, blocking buffer was removed and cells were resuspended in binding buffer (PBS with 10% FCS, 1 mg/mL BSA, 0.1 mg/mL tRNA). Cells (50 μL) were then incubated with the aptamers (50 μL) for 30 minutes at 37° C. at a range of concentrations (0 nM, 20 nM, 40 nM, 60 nM, 80 nM, 100 nM, 200 nM, 400 nM). Following this, cells were washed in 100 μL PBS three times before final resuspension for flow cytometry. Aptamers were incubated with the chosen cell lines (bEnd.3 cells, mouse cells positive for TfR; HEY cells, human ovarian cancer cell line positive for EpCAM; and MOLT4 human cells negative for both TfR and EpCAM) at a range of concentrations. Aptamer-bound cells were analysed using a FACS Canto II flow cytometer (Becton Dickinson), counting 10,000 events for each sample, in order to determine the binding affinity of the aptamers. […] The value for the auto fluorescent 0 nM concentration was subtracted from the other figures to account for background fluorescence (Li N et al (2009) Journal of Proteome Research 8(5):2438-48). […] The binding affinities of aptamers TfR1, TfR2, […] determined semi-quantitatively via flow cytometry, using bEnd.3 mouse cerebral endothelial cells as a Tf R-positive cell line and MOLT4 acute lymphoblastic leukaemia cells-which express the human TfR, but not the mouse TfR (Sutherland R et al (1981) PNAS 78(7):4515-9)-as a negative control. Three independent binding assays were performed for each aptamer against each cell line. […] Three independent binding assays were performed for these aptamer against all three cell lines (bEnd.3, HEY and MOLT4).

[1] = molecular target: T2, native EpCAM protein expressed on the cell surface (HEY cells) (Homo sapiens, UniProt P16422); test: Flow cytometry binding assay on HEY cells (EpCAM-positive); details: for Kd: HEY (EpCAM-positive) cells, flow cytometry, n=3
T2 construct: host or cells: HEY ovarian cancer cells
T2 sequence (P16422 24-314): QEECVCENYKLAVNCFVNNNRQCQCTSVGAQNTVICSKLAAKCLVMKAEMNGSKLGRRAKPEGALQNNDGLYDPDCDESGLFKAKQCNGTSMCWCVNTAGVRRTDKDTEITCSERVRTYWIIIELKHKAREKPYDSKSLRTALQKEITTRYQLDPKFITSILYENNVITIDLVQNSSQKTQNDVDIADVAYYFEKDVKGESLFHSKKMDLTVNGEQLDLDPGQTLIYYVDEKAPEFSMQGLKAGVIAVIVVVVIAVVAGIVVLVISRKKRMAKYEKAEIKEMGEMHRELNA
Protocol: In order to determine the binding affinity (equilibrium dissociation constant KD) of the aptamers. Binding assays were conducted to measure the binding to native EpCAM protein expressed on the cell surface. The aptamers were incubated with the cells at concentrations ranging from 0 nM to 400 nM. These were subsequently analysed by flow cytometry. Aptamers were thawed from storage (−20° C.) prior to use. These were then diluted via serial dilutions with phosphate buffered saline (PBS) in order to achieve the desired concentrations. PBS was supplemented with a MgCl2 concentration appropriate for the aptamer (1 mM for anti-TfR aptamers; 5 mM for conjugate aptamers). Aptamers were then folded into their 3D structures using a thermocycler (85° C. for 5 minutes, slow cooling to 22° C. over 10 minutes and 37° C. for 15 minutes).
Concurrently, subcultured cells were incubated in blocking buffer (PBS with 10% FCS, 1 mg/mL BSA, 0.1 mg/mL tRNA) for 30 minutes. Following centrifugation, blocking buffer was removed and cells were resuspended in binding buffer (PBS with 10% FCS, 1 mg/mL BSA, 0.1 mg/mL tRNA). Cells (50 μL) were then incubated with the aptamers (50 μL) for 30 minutes at 37° C. at a range of concentrations (0 nM, 20 nM, 40 nM, 60 nM, 80 nM, 100 nM, 200 nM, 400 nM). Following this, cells were washed in 100 μL PBS three times before final resuspension for flow cytometry.
Aptamers were incubated with the chosen cell lines (bEnd.3 cells, mouse cells positive for TfR; HEY cells, human ovarian cancer cell line positive for EpCAM; and MOLT4 human cells negative for both TfR and EpCAM) at a range of concentrations. Aptamer-bound cells were analysed using a FACS Canto II flow cytometer (Becton Dickinson), counting 10,000 events for each sample, in order to determine the binding affinity of the aptamers. […] The value for the auto fluorescent 0 nM concentration was subtracted from the other figures to account for background fluorescence (Li N et al (2009) Journal of Proteome Research 8(5):2438-48). The resultant values were then used to determine the dissociation constant (KD) via the Graph Pad Prism 3 software. […]
The binding affinities of aptamers Bi1, Bi2 and Bi3 were determined semi-quantitatively via flow cytometry, using bEnd.3 cells to assess reactivity with TfR, HEY cells to determine EpCAM specificity and the MOLT4 cell line as a negative control. Three independent binding assays were performed for these aptamer against all three cell lines (bEnd.3, HEY and MOLT4). […]

T1 sequence (Q62351 whole entry): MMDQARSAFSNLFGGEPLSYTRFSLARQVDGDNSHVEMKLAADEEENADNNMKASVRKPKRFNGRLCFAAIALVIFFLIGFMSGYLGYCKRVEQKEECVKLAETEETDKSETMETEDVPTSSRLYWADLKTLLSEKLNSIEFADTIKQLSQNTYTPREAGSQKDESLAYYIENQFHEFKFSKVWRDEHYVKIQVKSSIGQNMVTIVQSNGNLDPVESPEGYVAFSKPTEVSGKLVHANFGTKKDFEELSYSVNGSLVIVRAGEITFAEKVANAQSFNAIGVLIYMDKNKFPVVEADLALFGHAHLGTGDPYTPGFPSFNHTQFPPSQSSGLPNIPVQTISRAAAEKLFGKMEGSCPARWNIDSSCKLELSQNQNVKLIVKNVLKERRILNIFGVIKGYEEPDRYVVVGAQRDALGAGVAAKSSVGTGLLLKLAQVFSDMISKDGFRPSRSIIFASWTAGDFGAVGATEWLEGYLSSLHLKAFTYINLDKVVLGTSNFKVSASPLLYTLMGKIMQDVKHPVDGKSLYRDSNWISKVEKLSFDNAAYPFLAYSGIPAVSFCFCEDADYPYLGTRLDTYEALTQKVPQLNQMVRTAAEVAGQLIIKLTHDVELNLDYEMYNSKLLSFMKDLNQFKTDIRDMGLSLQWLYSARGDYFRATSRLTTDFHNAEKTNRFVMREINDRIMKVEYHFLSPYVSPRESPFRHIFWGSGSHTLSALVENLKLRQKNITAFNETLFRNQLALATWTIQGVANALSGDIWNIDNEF

Substance: Bi1: aptamer conjugate based on TfR1 and scrambled EpCAM binding loop, negative control, SEQ ID NO:8 (GCGCGTGCACGCGCTAACGGATTCCTTTTCCGN; listed as DNA, further chemistry not given here)
- Kd (mouse TfR): 1.69 ± 1.84 µM
- Kd [1]: 0.921 ± 0.27 µM

Substance: 5′-GCGCGGGCCCGCGCTAACGGAGGTTGCGTCCGT-3′ (GCGCGGGCCCGCGCTAACGGAGGTTGCGTCCGN; DNA sequence of aptamer conjugate Bi2; (33)..(33) n is t or 3′ inverted deoxythymidine (dT))
- Kd (mouse TfR): 0.305 µM
- Kd [1]: 0.205 ± 0.0733 µM

Substance: 5′-GCGCGGTACCGCGCTAACGGAGGTTGCGTCCGT-3′ (GCGCGGTACCGCGCTAACGGAGGTTGCGTCCGN; listed as DNA, chemistry not given here) [Bi3]
- Kd (mouse TfR): 0.342 ± 0.0783 µM
- Kd [1]: 0.219 ± 0.0492 µM

Substance: TfR3: version of TfR1 with scrambled binding loop sequence, SEQ ID NO:6 (DNA GCGTGGTACCACGC; DNA, 5' {TYE665}, 3' [invdT], backbone not given here)
- Kd (mouse TfR): 0.366 µM and 0.365 µM
- Binding to HEY cell line (specific or non-specific) ([1]; flow cytometry binding curve): clear non-specific binding
